Laboratory results from paper PMC11855827, “High-Throughput Screening of Five Compound Libraries for Anthelmintic Activity and Toxicity Leads to the Discovery of Two Flavonoid Compounds” (International Journal of Molecular Sciences, 2025).
Where two headings read alike, the source gives them in different places. Where no end group is shown, it is not given here.

What was measured:
[1] = tested on: C. elegans; assay: microbe, parasite or virus in culture; details: Caenorhabditis elegans
[2] = tested on: C. elegans
[3] = 0 h, read-out: Percentage of motility inhibition 0 h, Table S2, C. elegans SS assay, 110 μM, 0 h, averages of 4 data points
[4] = 24 h, read-out: Percentage of motility inhibition 24 h, Table S2, C. elegans SS assay, 110 μM, 24 h, averages of 4 data points
[5] = 0 h, read-out: Percentage of motility inhibition 0 h
[6] = 24 h, read-out: Percentage of motility inhibition 24 h
[7] = Table S2, C. elegans SS assay, 110 μM, 0 h, averages of 4 data points
[8] = Table S2, C. elegans SS assay, 110 μM, 24 h, averages of 4 data points

Row | Molecule | inhibition at 110 µM [1, 3] [%] | inhibition at 110 µM [1, 4] [%] | other results
1 | CC=CC(=O)N(CC)c1ccccc1C (mixture of isomers) [Crotamiton] | 23 | 24 | –
2 | OC[C@H]1O[C@@H](O[C@H]2[C@H](O)[C@@H](O)C(O)O[C@@H]2CO)[C@H](O)[C@@H](O)[C@H]1O (mixture of isomers) [Lactose] | – | – | inhibition at 110 µM [1, 5]: 54%; inhibition at 110 µM [1, 6]: 10%
3 | C=CC(C)(O)CCC=C(C)CCC=C(C)C (mixture of isomers) [Nerolidol] | 7 | 7 | –
4 | COc1ccc([C@@H](O)CNC(=O)/C=C/c2ccccc2)cc1 (racemic) [Aegeline] | 4 | 6 | –
5 | CSCCC(N)C(=O)O (racemic) [DL-Methionine] | 6 | 2 | –
6 | O=c1ncnc2n([C@H]3O[C@@H](CO)[C@H](O)[C@@H]3O)[nH]cc1-2 (stereo in doubt) [Allopurinol riboside] | 0 | 0 | –
7 | COc1cc(OC)cc(OC)c1 [1,3,5‐Trimethoxybenzene] | 1 | 25 | –
8 | CC(C)C12CCC(C)(CC1)O2 [1,4-Cineole] | 21 | 35 | –
9 | CCCCCCCCCCCCCCCCO [1-Hexadecanol] | 17 | 0 | –
10 | OC[C@H]1NC[C@H](O)[C@@H](O)[C@@H]1O [1‐Deoxynojirimycin] | 0 | 1 | –
11 | CCCCCCCCCCCCCCCCCCCCCCO [1‐Docosanol] | 33 | 25 | –
12 | Cc1cncc(C)n1 [2,6‐Dimethylpyrazine] | 0 | 0 | –
13 | CC(=O)c1ccc[nH]1 [2‐Acetylpyrrole] | 26 | 18 | –
14 | O=c1[nH]c2ccccc2o1 [2‐Benzoxazolinone] | 24 | 6 | –
15 | c1ccc2c(Cc3c[nH]c4ccccc34)c[nH]c2c1 [3,3'‐Diindolylmethane] | 0 | 7 | –
16 | Cc1ccc2[nH]c3ccccc3c2c1 [3‐Methylcarbazole] | 0 | 29 | –
17 | COc1c(-c2ccc(O)c(O)c2)oc2cc(O)cc(O)c2c1=O [3‐O‐Methylquercetin] | 3 | 16 | –
18 | O=C(/C=C/c1ccccc1)c1ccc(O)cc1 [4'‐Hydroxychalcone] | 39 | 15 | –
19 | COc1ccc(C(=O)/C=C/c2ccccc2)cc1 [4'‐Methoxychalcone] | – | – | inhibition at 110 µM [1, 5]: 0%; inhibition at 110 µM [1, 6]: 5%
20 | COc1c(OC)c2nccc3c4ccccc4n(c1=O)c23 [4,5‐Dimethoxycanthin‐6‐one] | 0 | 22 | –
21 | Cc1cc(=O)oc2cc(O)ccc12 [4-Methylumbelliferone] | 4 | 3 | –
22 | O=C(/C=C/c1ccc(O)cc1)c1ccccc1 [4‐Hydroxychalcone] | 0 | 1 | –
23 | N[C@@H](Cc1c[nH]c2ccc(O)cc12)C(=O)O [5-Hydroxytryptophan] | 28 | 12 | –
24 | O=c1cc(-c2ccccc2)oc2cccc(O)c12 [5‐Hydroxyflavone] | 12 | 21 | –

Row | Molecule | inhibition at 110 µM [1, 3] [%] | inhibition at 110 µM [1, 4] [%] | other results
25 | Oc1ccc2[nH]ccc2c1 [5‐Hydroxyindole] | 28 | 9 | –
26 | O=c1cc(-c2ccccc2)oc2ccc(O)cc12 [6‐Hydroxyflavone] | 14 | 2 | –
27 | O=c1cc(-c2ccccc2)oc2cc(O)ccc12 [7‐Hydroxyflavone] | 1 | 0 | –
28 | CC(C)=CCc1c(O)c(CC=C(C)C)c2oc3c(O)cccc3c(=O)c2c1O [8‐Deoxygartanin] | 14 | 0 | –
29 | Nc1nc2c(nc(O)n2[C@@H]2O[C@H](CO)[C@@H](O)[C@H]2O)c(=O)[nH]1 [8‐Hydroxyguanosine] | 14 | 4 | –
30 | CC[C@@]1(O)C(=O)OCc2c1cc1n(c2=O)Cc2cc3c(N)cccc3nc2-1 [9‐Aminocamptothecin] | 0 | 2 | –
31 | C=CCCCCCCCCC(=O)O [10‐Undecenoic acid] | 60 | 67 | –
32 | C=C1CC[C@@H]2[C@](C)(CO)[C@H](O)CC[C@@]2(C)[C@@H]1CCC1=CCOC1=O [14-Deoxyandrographolide] | 1 | 28 | –
33 | CC(C)=CCC[C@@H](C)CC=O [(R)-(+)-Citronellal] | 0 | 8 | –
34 | CC[C@@]1(O)C(=O)OCc2c1cc1n(c2=O)Cc2cc3cc(O)ccc3nc2-1 [(S)‐10‐Hydroxycamptothecin] | 0 | 0 | –
35 | Oc1cc(O)c2c(c1)O[C@@H](c1ccc(O)c(O)c1)[C@H](O)C2 [(‐)‐Catechin] | 8 | 9 | –
36 | Oc1cc(O)c2c(c1)O[C@H](c1ccc(O)c(O)c1)[C@H](O)C2 [(‐)‐Epicatechin] | 1 | 23 | –
37 | Oc1cc(O)c2c(c1)O[C@@H](c1cc(O)c(O)c(O)c1)[C@H](O)C2 [(‐)‐Gallocatechin] | – | – | inhibition at 110 µM [1, 5]: 43%; inhibition at 110 µM [1, 6]: 5%
38 | C/C=C1\[C@H]2C=C(C)C[C@]1(N)c1ccc(=O)[nH]c1C2 [(‐)‐Huperzine A] | 0 | 4 | –
39 | O=C1C=C2C=C[C@@H]3C[C@@]2(O1)[C@H]1CCCCN31 [(‐)‐Securinine] | 0 | 12 | –
40 | COc1c(-c2ccc3cc(NS(C)(=O)=O)ccc3c2)cc(-n2ccc(=O)[nH]c2=O)cc1C(C)(C)C [ABT‐333] | 40 | 0 | –
41 | OB1OCc2cc(F)ccc21 [AN‐2690] | 0 | 12 | –
42 | Nc1nc(NC2CC2)c2ncn([C@H]3C=C[C@@H](CO)C3)c2n1 [Abacavir] | 3 | 2 | –
43 | CC1=CC(=O)CC(C)(C)[C@@]1(O)/C=C/C(C)=C\C(=O)O [Abscisic acid] | 0 | 11 | –
44 | COc1ccc(-c2cc(=O)c3c(O)cc(O)cc3o2)cc1 [Acacetin] | 9 | 2 | –
45 | Cn1c(=O)c2c(ncn2CC(=O)O)n(C)c1=O [Acefylline] | 0 | 1 | –
46 | CC(=O)OCC1=CO[C@@H](OC(=O)CC(C)C)[C@H]2C1=C[C@H](OC(=O)CC(C)(C)OC(C)=O)[C@]21CO1 [Acevaltrate] | – | – | inhibition at 110 µM [1, 5]: 7%; inhibition at 110 µM [1, 6]: 21%
47 | CCN1C[C@]2(COC)[C@H](O)C[C@H](OC)[C@]34C1[C@H]([C@H](OC)[C@H]23)[C@]1(O)[C@H]2[C@@H](O)[C@](O)(C[C@H]24)[C@@H](OC)[C@@H]1O [Aconine] | 10 | 0 | –
48 | Nc1nc2c(ncn2COCCO)c(=O)[nH]1 [Acyclovir] | 17 | 12 | –

Row | Molecule | inhibition at 110 µM [1, 3] [%] | inhibition at 110 µM [1, 4] [%] | other results
49 | CC(C)(C)C(=O)OCOP(=O)(COCCn1cnc2c(N)ncnc21)OCOC(=O)C(C)(C)C [Adefovir dipivoxil] | 28 | 14 | –
50 | Nc1ncnc2[nH]cnc12 [Adenine] | – | – | inhibition at 110 µM [1, 5]: 0%; inhibition at 110 µM [1, 6]: 3%
51 | Nc1ncnc2c1ncn2[C@@H]1O[C@H](CO)[C@@H](O)[C@H]1O [Adenosine] | 0 | 9 | –
52 | Pseudoginsenoside F11 | – | – | Percentage of motility inhibition 0 h [2, 7]: 0%; Percentage of motility inhibition 24 h [2, 8]: 22%
53 | RKDVY [Thymopentin (acetate)] | – | – | Percentage of motility inhibition 0 h ([2]; 0 h, 110 μM): 4%; Percentage of motility inhibition 24 h ([2]; 24 h, 110 µM): 4%
54 | RKDVY [Thymopentin] | – | – | Percentage of motility inhibition 0 h ([2]; 0 h, 110 μM): 36%; Percentage of motility inhibition 24 h ([2]; 24 h, 110 µM): 3%
55 | Rebaudioside B | – | – | Percentage of motility inhibition 0 h [2, 7]: 6%; Percentage of motility inhibition 24 h [2, 8]: 1%
56 | Rebaudioside C | – | – | Percentage of motility inhibition 0 h [2, 7]: 0%; Percentage of motility inhibition 24 h [2, 8]: 6%
57 | Retrorsine | – | – | Percentage of motility inhibition 0 h [2, 7]: 28%; Percentage of motility inhibition 24 h [2, 8]: 9%
58 | SN‐38 | – | – | Percentage of motility inhibition 0 h [2, 7]: 34%; Percentage of motility inhibition 24 h [2, 8]: 3%
59 | Schaftoside | – | – | Percentage of motility inhibition 0 h [2, 7]: 0%; Percentage of motility inhibition 24 h [2, 8]: 3%
60 | Strictosamide | – | – | Percentage of motility inhibition 0 h [2, 7]: 0%; Percentage of motility inhibition 24 h [2, 8]: 9%
61 | Tannic acid | – | – | Percentage of motility inhibition 0 h [2, 7]: 3%; Percentage of motility inhibition 24 h [2, 8]: 15%
62 | Tarasaponin VI | – | – | Percentage of motility inhibition 0 h [2, 7]: 0%; Percentage of motility inhibition 24 h [2, 8]: 0%
63 | Teicoplanin | – | – | Percentage of motility inhibition 0 h [2, 7]: 3%; Percentage of motility inhibition 24 h [2, 8]: 9%
64 | Theaflavin 3,3'‐digallate | – | – | Percentage of motility inhibition 0 h [2, 7]: 0%; Percentage of motility inhibition 24 h [2, 8]: 2%
65 | Theaflavin‐3'‐gallate | – | – | Percentage of motility inhibition 0 h [2, 7]: 9%; Percentage of motility inhibition 24 h [2, 8]: 0%
66 | Trigonelline (chloride) | – | – | Percentage of motility inhibition 0 h ([2]; 110 µM): 2%; Percentage of motility inhibition 24 h ([2]; 110 µM): 17%
67 | Tubeimoside I | – | – | Percentage of motility inhibition 0 h [2, 7]: 3%; Percentage of motility inhibition 24 h [2, 8]: 0%
68 | Valepotriate | – | – | Percentage of motility inhibition 0 h [2, 7]: 0%; Percentage of motility inhibition 24 h [2, 8]: 7%
69 | Vitamin B12 | – | – | Percentage of motility inhibition 0 h [2, 7]: 34%; Percentage of motility inhibition 24 h [2, 8]: 0%
70 | Vitamin K | – | – | Percentage of motility inhibition 0 h [2, 7]: 0%; Percentage of motility inhibition 24 h [2, 8]: 15%
71 | Xanthopterin (hydrate) | – | – | Percentage of motility inhibition 0 h [2, 7]: 5%; Percentage of motility inhibition 24 h [2, 8]: 0%
